Results taken from ChEMBL document CHEMBL3885861, “Open TG-GATES”.

Species on record: Rattus norvegicus
Assay: Open TG-GATES - Regimen: Daily Repeat
Assay type: toxicity, organism-based, Sprague-Dawley
Design: regimen Daily Repeat, gender Male, age 6 weeks
Conditions: in vivo, po, 0 mg/kg, route gavage, dose level Control; for APTT / Bas / Eos / Fbg / Hb / Ht / Lym / MCHC / MCV / Mono / Neu / PT / Plat / RBC / Ret / WBC: tissue Blood; for KIDNEY_L / KIDNEY_R / KIDNEY_TOTAL: tissue Kidney; for LIVER: tissue Liver; for ALP / ALT / AST / BUN / CRE / Ca / Cl / DBIL / GLC / IP / K / LDH / Na / PL / RALB / TBIL / TG / TP / gamma-GTP: tissue Plasma

## CN(C)C(=N)N=C(N)N [METFORMIN]
72 h, time 3 day
  TERMINAL_BW: 224.4 g
  APTT: 16.8 s
  Bas: 0.2%
  Eos: 1%
  Fbg: 246.8 mg/dL
  Hb: 13.1 g/dL
  Ht: 38.7%
  Lym: 75.4%
  MCHC: 34%
  MCV: 64.1 fL
  Mono: 3.4%
  Neu: 19.6%
  PT: 12.6 s
  Plat: 121.6 x10_4/uL
  RBC: 603.2 x10_4/ul
  Ret: 6.9%
  WBC: 114.3 x10_2/uL
  KIDNEY_L: 1 g
  KIDNEY_R: 1 g
  KIDNEY_TOTAL: 2 g
  LIVER: 10.6 g
  ALP: 1345.6 IU/L
  ALT: 69.8 IU/L
  AST: 80.6 IU/L
  BUN: 13 mg/dL
  CRE: 0.2 mg/dL
  Ca: 11 mg/dL
  Cl: 104.6 meq/L
  DBIL: 0.014 mg/dL
  GLC: 184.8 mg/dL
  IP: 8.5 mg/dL
  K: 4 meq/L
  LDH: 69.8 IU/L
  Na: 140.8 meq/L
  PL: 143.6 mg/dL
  RALB: 2.5 g/dL
  TBIL: 0.034 mg/dL
  TG: 71.2 mg/dL
  TP: 5.5 g/dL
  gamma-GTP: 1 IU/L
[…], time 7 day
  TERMINAL_BW: 255.4 g
  APTT: 16.6 s
  Bas: 0%
  Eos: 1.2%
  Fbg: 272.8 mg/dL
  Hb: 13.6 g/dL
  Ht: 40.1%
  Lym: 77.8%
  MCHC: 34%
  MCV: 64.1 fL
  Mono: 3%
  Neu: 17.6%
  PT: 12 s
  Plat: 126.8 x10_4/uL
  RBC: 626.4 x10_4/ul
  Ret: 6%
  WBC: 90.7 x10_2/uL
  KIDNEY_L: 1 g
  KIDNEY_R: 1 g
  KIDNEY_TOTAL: 2.1 g
  LIVER: 11.7 g
  ALP: 1433.2 IU/L
  ALT: 43.2 IU/L
  AST: 69.6 IU/L
  BUN: 16.4 mg/dL
  CRE: 0.2 mg/dL
  Ca: 11.3 mg/dL
  Cl: 105.2 meq/L
  DBIL: 0.014 mg/dL
  GLC: 187 mg/dL
  IP: 7.8 mg/dL
  K: 4.3 meq/L
  LDH: 66.6 IU/L
  Na: 141.4 meq/L
  PL: 145.2 mg/dL
  RALB: 2.7 g/dL
  TBIL: 0.034 mg/dL
  TG: 91 mg/dL
  TP: 5.9 g/dL
  gamma-GTP: 1 IU/L
[…], time 14 day
  TERMINAL_BW: 310.2 g
  APTT: 18.3 s
  Bas: 0%
  Eos: 0.8%
  Fbg: 252.2 mg/dL
  Hb: 14.1 g/dL
  Ht: 40.7%
  Lym: 77.8%
  MCHC: 34.5%
  MCV: 60.5 fL
  Mono: 3.4%
  Neu: 17.4%
  PT: 12.3 s
  Plat: 123 x10_4/uL
  RBC: 674 x10_4/ul
  Ret: 4.8%
  WBC: 104.1 x10_2/uL
  KIDNEY_L: 1.2 g
  KIDNEY_R: 1.2 g
  KIDNEY_TOTAL: 2.4 g
  LIVER: 14.4 g
  ALP: 1342.2 IU/L
  ALT: 43.2 IU/L
  AST: 81 IU/L
  BUN: 16.4 mg/dL
  CRE: 0.2 mg/dL
  Ca: 11 mg/dL
  Cl: 105.2 meq/L
  DBIL: 0.014 mg/dL
  GLC: 188.2 mg/dL
  IP: 7.1 mg/dL
  K: 4 meq/L
  LDH: 168 IU/L
  Na: 142.8 meq/L
  PL: 150.6 mg/dL
  RALB: 2.7 g/dL
  TBIL: 0.034 mg/dL
  TG: 139.2 mg/dL
  TP: 6 g/dL
  gamma-GTP: 1 IU/L
[…], time 28 day
  TERMINAL_BW: 386.6 g
  APTT: 17.2 s
  Bas: 0.2%
  Eos: 1.4%
  Fbg: 260 mg/dL
  Hb: 15 g/dL
  Ht: 43.2%
  Lym: 78.6%
  MCHC: 34.7%
  MCV: 56.9 fL
  Mono: 2.6%
  Neu: 16.8%
  PT: 12.1 s
  Plat: 103.4 x10_4/uL
  RBC: 759.6 x10_4/ul
  Ret: 2.5%
  WBC: 118 x10_2/uL
  KIDNEY_L: 1.4 g
  KIDNEY_R: 1.4 g
  KIDNEY_TOTAL: 2.8 g
  LIVER: 15.6 g
  ALP: 1085 IU/L
  ALT: 41.8 IU/L
  AST: 60.8 IU/L
  BUN: 16 mg/dL
  CRE: 0.2 mg/dL
  Ca: 11.1 mg/dL
  Cl: 105.4 meq/L
  DBIL: 0.014 mg/dL
  GLC: 176.2 mg/dL
  IP: 6.6 mg/dL
  K: 3.9 meq/L
  LDH: 51.8 IU/L
  Na: 145 meq/L
  PL: 143.4 mg/dL
  RALB: 2.7 g/dL
  TBIL: 0.036 mg/dL
  TG: 134.2 mg/dL
  TP: 6.1 g/dL
  gamma-GTP: 1 IU/L
